Laboratory results taken from patent US11786606B2, “Site-specific quantitation of drug conjugations” (Regeneron Pharmaceuticals, Inc., priority 2019, dated 2023).

Biological target: T1, papain (Carica papaya, UniProt P00784)
T1 sequence (P00784 134-345): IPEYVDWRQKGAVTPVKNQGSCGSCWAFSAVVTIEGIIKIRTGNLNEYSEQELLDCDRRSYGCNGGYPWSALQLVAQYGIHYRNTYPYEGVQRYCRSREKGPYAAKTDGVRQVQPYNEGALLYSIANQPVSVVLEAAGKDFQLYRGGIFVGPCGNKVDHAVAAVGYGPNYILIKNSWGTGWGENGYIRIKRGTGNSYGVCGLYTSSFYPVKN
Experiment: Papain digestion to remove drug payloads from ADC linkers, monitored by LC-MS peak areas of surrogate peptides
Format: biochemical
Details: papain to substrate ratio 1:200; peak areas of peptides containing cleaved linker
Description: According to the concentration of ADC samples, transfer 25 μg of each ADC sample to a new microcentrifuge tube and add water to a total volume of 10 μL. Dilute 20 uL of papain suspension (10 mg/mL) with 180 uL of papain digestion buffer, incubate at 37° C. for 30 min. Dilute 30 uL of papain (nominal concentration of 1 mg/mL) with 120 uL of activation buffer to a nominal concentration of 0.2 mg/mL. Measure papain concentration with UV (ultra-violate) measurement at 280 nm and 320 nm using papain activation buffer as the blank buffer. Dilute activated papain to a final concentration of 0.1 mg/mL with papain activation buffer. Add 1.25 uL of 0.1 mg/mL papain solution (enzyme:substrate ratio is 1:200) to intact ADC, incubate at 37° C. for 1 h. Add 0.5 μL of 0.1 M TCEP-HCl to each sample. Vortex the samples for 3 seconds, and then spin down the samples using a Minicentrifuge for 3 seconds. Incubate samples at 95° C. for 20 minutes with shaking at 800 rpm in a thermomixer. Following incubation, cool down the samples to room temperature for 5 minutes. Spin down the condensation using a Minicentrifuge for 3 seconds. Add 6 μL of 8 M urea in 1 M Tris-HCl, pH 7.5 to each sample. […]
Papain was used to remove the payloads of MAB1-LK1 ADCs. […] Two tryptic peptides, e.g., SCDK (serine-cysteine-aspartic acid-lysine) (SEQ ID NO: 7) and GEC (glycine-glutamic acid-cysteine), were analyzed using LC-MS. […]

| Substance | incubation time for completion of papain digestion to remove drug payloads (cleaved linker monitored) |
| --- | --- |
| mal-amido-PEG8-VA-PABA [LK1] | one |
| mal-amido-Val-Cit-PABA [LK3] | one |
